Measurements from patent US9730906B2, “α-derivatives of cis-monounsaturated fatty acids for use as medicines” (UNIVERSITAT DE LES ILLES BALEARS, priority 2008, dated 2017).

Legend:
[1] = biological target: T1, cyclooxygenases-1 (COX-1) (Homo sapiens, UniProt P23219); assay: COX-1 activity in U937 differentiated monocytes (Cayman COX-1 inhibitor screening system); format: cell-based; details: 250 μM, 6 hours; compared with fatty acids not of Formula I, p<0.05
T1 construct: endogenous in cells; host or cells: U937 differentiated monocytes
T1 sequence (P23219 24-599): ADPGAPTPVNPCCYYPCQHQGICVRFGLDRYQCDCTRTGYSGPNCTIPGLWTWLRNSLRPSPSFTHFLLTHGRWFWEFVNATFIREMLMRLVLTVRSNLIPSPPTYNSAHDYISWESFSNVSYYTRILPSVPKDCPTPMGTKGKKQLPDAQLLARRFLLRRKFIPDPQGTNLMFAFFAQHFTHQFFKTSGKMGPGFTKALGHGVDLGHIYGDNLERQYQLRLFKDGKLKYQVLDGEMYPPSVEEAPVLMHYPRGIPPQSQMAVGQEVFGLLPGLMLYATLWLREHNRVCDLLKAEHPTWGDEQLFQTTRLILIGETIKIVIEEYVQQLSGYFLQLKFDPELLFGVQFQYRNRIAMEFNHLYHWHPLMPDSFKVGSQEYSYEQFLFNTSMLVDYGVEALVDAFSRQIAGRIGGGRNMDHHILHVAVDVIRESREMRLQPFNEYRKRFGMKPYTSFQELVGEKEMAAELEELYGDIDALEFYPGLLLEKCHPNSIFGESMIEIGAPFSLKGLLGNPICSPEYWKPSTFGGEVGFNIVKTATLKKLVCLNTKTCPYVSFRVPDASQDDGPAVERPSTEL
Protocol: FIG. 19A. Effect of various fatty acids in the inhibition of the activity of cyclooxygenases-1 (COX-1) (Cayman COX-1 inhibitor screening system). […] Cell cultures (U937 differentiated monocytes) were treated with the fatty acids of the invention (250 μM, 6 hours).
(§1) In an additional study on the release of various proinflammatory cytokines (IL-1b, IL-6, IL-8, IL-10) and TNF-α in U937 monocytes stimulated with bacterial lipopolysaccharide (LPS), a marked reduction in the levels of these molecules was observed after treatments with OHHD at a concentration of 250 μM and 72 h incubation (Table 4). The effect of the α-derivatives of cis-monounsaturated fatty acids (250 μM, 6 h) on the activity and expression of the COX-1 and COX-2 cyclooxygenases was investigated in the same system.

cyclooxygenase-2 (COX-2) = assay: Cellular concentration of COX-2 in U937 differentiated monocytes (immunoblot); format: cell-based, human; details: 250 μM, 6 hours; compared with fatty acids not of Formula I, p<0.05
Protocol: FIG. 19B. Effect of various fatty acids in the inhibition (concentration of protein) of cyclooxygenase-2 (immunoblot of COX-2). […] Cell cultures (U937 differentiated monocytes) were treated with the fatty acids of the invention (250 μM, 6 hours).
as §1

[2] = Rat obesity induced by cafeteria diet, preventative pre-treatment (Table 3); format: in vivo, Wistar Kyoto rats; details: 300 mg/kg oral, after two weeks on cafeteria diet; obese control 308 ± 17, lean control 280 ± 16; * lower than obese controls, ‡ indistinguishable
Protocol: In a further experiment, the effect of various molecules at a single dose (600 mg/kg) was investigated. […] In this sense, modification on the α-carbon and the double bond in cis configuration are crucial elements for producing the therapeutic effect indicated above. […] Finally, the effect of α-derivatives of cis-monounsaturated fatty acids on the prevention of obesity was investigated. For this, a model of rat obesity induced by a cafeteria diet, where the hypercaloric food increases the weight of the animals very markedly, was used. There were various experimental groups (see Table 3), each of which consisted of 6 female Wistar Kyoto rats of 250-300 g in weight. All the animals received a standard diet for 2 weeks. In addition, 2 of the groups received an oral preventative pre-treatment of vehicle and the other groups received 300 mg/kg of the fatty acids indicated below. Afterwards, one of the control groups was maintained on a standard diet (lean control) and the other was fed on a cafeteria diet (obese control). The treated animal groups were fed on the cafeteria diet. Preventative pre-treatment was maintained for all the groups. After two weeks on these diets, the lean control group had increased their body weight by an average of 16±16 g, while the obese control group had increased their body weight by an average of 43±17 g (statistically significance difference, p<0.01).
The weight of treated animals was statistically less than the weight of obese control rats and statistically indistinguishable from that of lean control rats.

[3] = tested on: A549 cells of human lung adenocarcinoma; assay: Prevention of tumour development in nude mice injected with A549 cells; format: in vivo; details: 400 mg/kg per day oral, 2 weeks before and one month after A549 injection, compared with fatty acids not of Formula I, p<0.05
Source text: FIG. 2. Preventative effect of various fatty acids against tumour development. […] Animals received treatment before injection of tumour cells and the treatment was subsequently maintained. Animals of the control group were not treated and the volume of their tumours was taken as the reference value (100%).
To determine whether the fatty acids of the invention have applications in the prevention of the development of tumour processes, an animal cancer model was used. This model consisted of immune-deprived animals ([Crl:Nu(Ico)-Fox 1] nude mice in which non-microcytic human lung cancer cells were injected (5×10^6 A549 cells per animal). The control group (infected with cancer cells but untreated) started to develop tumours that were visible after a few days. The sizes of the tumours were measured for the first time at 10 days after implanting the tumour and measurements continued for up to 31 days after the implantation with a digital calliper. The volume of the tumours was calculated with the following equation: v=w^2×l/2 where v is the volume of the tumour, w is its width and l is the length. Preventative treatments against development of the cancer were applied. To carry out these treatments, 400 mg/kg were administered per day for 2 weeks before the injection of tumour cells. This treatment was continued for one month after the implantation of the tumour cells and the volume of the tumours in the animals was measured. Each experimental group was composed of 8 animals. Oral administration of α-derivatives of cis-monounsaturated fatty acids prevented cancer development (A549 cells of human lung adenocarcinoma) (FIG. 2). […] Therefore it was concluded that the introduction of a double bond in the cis configuration in the structure of the fatty acid is a critical factor in the prevention and treatment by fatty acids of cancer development.

A549 cells = assay: Growth/viability of A549 lung cancer cells in culture (cell count); format: cell-based, human; details: Doses of 200 to 400 μM, A549
Protocol: FIG. 3A. Cancer cells (A549) were treated with various concentrations of OHOD and MOD11 to determine whether the effect was dependent on the concentration. […] These cells were treated with different concentrations (0-400 μM) of OHOD and MOD11 and the number of cells was determined by flow cytometry.
FIG. 3B. Cancer cells (A549) were treated with compounds indicated on the horizontal axis for 48 hours at 150 μM. Then, the cells were counted and their number and percent of untreated (control) represented on the vertical axis.
Also, a series of α-derivatives of cis-monounsaturated fatty acids were used to investigate their effectiveness in cancer treatment. Two types of experiment were performed. Firstly, the dependency of the anti-tumour effect on concentration was investigated. To perform these experiments, human lung cancer cells (A549) were cultivated in RPMI medium, supplemented with 10% foetal bovine […], 10 mM Hepes (pH 7.4), 2 mM glutamine, 2 g/l bicarbonate, 1 g/l glucose, 100 units/ml penicillin, 0.1 mg/ml streptomycin, 0.25 μg/ml Amphotericin B, at 37° C. and in the presence of 5% CO2. In a first experimental series, these cells were treated with various concentrations (0-400 μM) of OHOD and MOD11 and the number of cells was determined by flow cytometry (FIG. 3A). […] In a second series, the anti-tumour effectiveness on A549 lung cancer cells was investigated at a single concentration (150 μM) and a time of 48 hours (FIG. 3B). […] Obviously, among the previous molecules, some lacked both modifications on the α-carbon and the double bond in cis configuration (EO, HDO, ODO) and had no therapeutic effect. […]

Row | Structure (SMILES) | inhibition of COX-1 activity (% of control) [1] | cellular concentration of COX-2 (% of control) (cyclooxygenase-2 (COX-2)) | Final weight [2] | tumour volume (prevention of tumour development) [3] | effect on tumour cells at 200 to 400 μM (A549 cells)
1 | CCCCCCCC/C=C\CCCCCCC(N)C(=O)O (stereo not drawn) [AOD, α-Amino-cis-Δ9-octadecenoic] | more significant effect | more significant effect | 272 ± 15* g | more significant effect | 
2 | CCCCCCCC/C=C\CCCCCCC(F)C(=O)O (stereo not drawn) [FOD, α-Fluoro-cis-Δ9-octadecenoic] | more significant effect | more significant effect | 279 ± 13* g | more significant effect | 
3 | CCCCCC/C=C\CCCCCCCCC(C)C(=O)O (stereo not drawn) [MOD11, α-Methyl-cis-Δ11-octadecenoic] | more significant effect | more significant effect | 274 ± 18* g | more significant effect | total elimination of tumour cells
4 | CCCCCCCC/C=C\CCCCCCC(C)C(=O)O (stereo not drawn) [MOD, α-Methyl-cis-Δ9-octadecenoic] | more significant effect | more significant effect | 268 ± 12* g | more significant effect | 
5 | CCCCCCCC/C=C\CCCCCCCCCCC(O)C(=O)O (stereo not drawn) [OHDE, α-Hydroxy-cis-Δ13-docosenoic] | more significant effect | more significant effect | 273 ± 15* g | more significant effect | 
6 | CCCCCCCC/C=C\CCCCCCCCC(O)C(=O)O (stereo not drawn) [OHEE, α-Hydroxy-cis-Δ11-eicosenoic] | more significant effect | more significant effect | 264 ± 11* g | more significant effect | 
7 | CCCCCC/C=C\CCCCCCCCC(O)C(=O)O (stereo not drawn) [OHOD11, α-Hydroxy-cis-Δ11-octadecenoic] | more significant effect | more significant effect | 269 ± 12* g | more significant effect | 
8 | CCCCCCC/C=C\CCCCCCCC(S)C(=O)O (stereo not drawn) [SHOD, α-Mercapto-cis-Δ10-octadecenoic] | more significant effect | more significant effect | 269 ± 16* g | more significant effect | 
9 | CCCCCCCC/C=C\CCCCCCC(C(=O)O)C(F)(F)F (stereo not drawn) [TFMOD, α-Trifluoromethyl-cis-Δ9-octadecenoic] | more significant effect | more significant effect | 278 ± 14* g | more significant effect | 
